{"source": "patent US12612343B2", "about": "“PSMA binder and use thereof” (priority 2020, dated 2026)", "key": {"[1]": {"biological_target": "PSMA protein (Homo sapiens, UniProt Q04609)", "sequence (Q04609 whole entry)": "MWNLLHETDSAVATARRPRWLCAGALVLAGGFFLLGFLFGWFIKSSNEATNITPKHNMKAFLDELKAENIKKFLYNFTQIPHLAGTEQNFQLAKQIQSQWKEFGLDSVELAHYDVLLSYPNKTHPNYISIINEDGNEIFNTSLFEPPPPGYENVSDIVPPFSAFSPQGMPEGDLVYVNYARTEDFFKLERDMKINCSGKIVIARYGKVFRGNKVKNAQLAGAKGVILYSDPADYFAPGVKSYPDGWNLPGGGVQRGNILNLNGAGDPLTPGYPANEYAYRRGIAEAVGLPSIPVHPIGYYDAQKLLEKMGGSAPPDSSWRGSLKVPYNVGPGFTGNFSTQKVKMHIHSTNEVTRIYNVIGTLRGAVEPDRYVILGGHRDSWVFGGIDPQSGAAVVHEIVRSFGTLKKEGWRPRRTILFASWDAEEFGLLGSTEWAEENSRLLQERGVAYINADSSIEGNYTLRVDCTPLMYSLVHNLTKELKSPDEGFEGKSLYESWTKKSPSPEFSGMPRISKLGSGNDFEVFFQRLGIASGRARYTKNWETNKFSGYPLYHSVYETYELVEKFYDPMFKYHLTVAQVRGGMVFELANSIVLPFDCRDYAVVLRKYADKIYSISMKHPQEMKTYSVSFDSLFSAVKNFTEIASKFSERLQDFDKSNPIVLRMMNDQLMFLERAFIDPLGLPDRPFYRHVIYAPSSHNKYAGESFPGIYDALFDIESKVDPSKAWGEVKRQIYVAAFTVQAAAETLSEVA", "test": "Affinity assay by Surface Plasmon Resonance (SPR)", "settings": "binding to PSMA protein", "experimental": "The binding capacity of HYNIC-PSMA-XL-2 and HYNIC-PSMA-XL-3 to PSMA protein was determined by Surface Plasmon Resonance (SPR)."}, "[2]": {"test_system": "Human prostate cancer LNCaP cells (PSMA positive)", "test": "LNCaP cell uptake experiment", "type": "cell-based", "settings": "for specific binding to PSMA-positive LNCaP cells: conclusion from the uptake and blocking experiment", "experimental": "Human prostate cancer LNCaP cells (PSMA positive) were cultured in a RPMI 1640 medium containing 10% fetal bovine serum and 1% penicillin-streptomycin double antibody under 37° C. with 5% CO2 and saturated humidity in the incubator. When the cells reach log phase, they were digested with 0.25% trypsin, then the cells were collected and washed twice with PBS, after that a cell suspension was obtained for further culture. A fixed number of cell lines (1.0×10^6 cells/1 ml) was placed in each well of a 24-well cell culture dish, and the experiment was performed after the logarithmic growth phase.\nThe cells were divided into an experimental group and a blocking group. […] 6 groups of experiments were carried out in parallel. After 1 h, the culture medium was aspirated, placed in a γ-counting tube, and then washed three times with PBS. The washing solution and the culture medium were combined for storage. Then the cells were trypsinized, collected in another counting tube, and the percentage of cell uptake was calculated by a γ-counting tube."}, "[3]": {"test_system": "biochemical recurrent prostate cancer", "test": "Comparison of SPECT/CT and PET/CT in 10 patients with biochemical recurrent prostate cancer", "type": "in vivo, human", "settings": "for patients found to have local recurrence in the prostatic fossa / positive rate of imaging: 5 patients per group; for positive rate of imaging: preliminary statistics; for Number of tumors / With or without local recurrence: per patient (No. 1-10), biochemical recurrence after radical prostatectomy", "experimental": "10 patients with biochemical recurrent prostate cancer were randomly divided into two groups. The basic clinical information of the two groups was similar: they both have previously received radical prostatectomy, and the current PSA of them were 1-3 ng/ml, and the GS score of them were 8-9. One group underwent ^68Ga-PSMA11 PET/CT, and the other group underwent ^99mTc-PSMA-XL SPECT/CT."}, "[4]": {"test_system": "prostate cancer tumors (PSMA expression)", "test": "SPECT/CT imaging of 10 patients with prostate cancer, with immunohistochemistry of surgical specimens", "type": "in vivo, human", "experimental": "The patients were injected with about 740MBq of ^99mTc-HYNIC-PSMA-XL-3, and 2 hours later, they were examined by a Discovery 670 (GE, USA) scanner. Taking the right obturator internus muscle as the background, the target-to-background ratio (TBR) was calculated, and the results were shown in FIG. 15. […] Four of the five patients with primary prostate cancer underwent radical prostatectomy, and one of the three patients with biochemical recurrence prostate cancer underwent salvage lymph node dissection. Without knowing the results of ^99mTc-HYNIC-PSMA-XL-3 SPECT/CT, pathology specialists performed pathological analysis of samples. Representative sections were stained by immunohistochemistry method, deparaffinized in xylene and rehydrated in graded ethanol series. Antigen retrieval was performed with the aid of autoclave and retrieval buffer (Target Retrieval Solution, Dako). Mouse monoclonal antibody against PSMA (clone 3E6, Dako) was diluted at a 1:100 dilution and incubated overnight at 4° C., followed by immunodetection using the Histostain-Plus Detection Kit (Invitrogen). Stained sections were scanned using Nanozoomer 2.0-[…] (Hamamatsu Photonics) to generate digital overall images."}, "[5]": {"test_system": "prostate tumors versus bladder", "test": "Comparative imaging study with existing PSMA imaging agents in 15 prostate cancer patients", "type": "in vivo, human", "settings": "3 groups, SPECT/CT or PET/CT (FIG. 19)", "text": "15 patients with prostate cancer were randomly divided into 3 groups. One group underwent ^99mTc-HYNIC-ALUG SPECT/CT, one group underwent ^68Ga-PSMA11 PET/CT, and one group underwent ^99mTc-HYNIC-PSMA-XL3 SPECT/CT."}, "[6]": {"settings": "upper bound calculated from ka, as kd was beyond the detection limit, read-out: KD value (SPR method)"}}, "note": "Where “and” joins values, the source holds several entries; their conditions need not be identical. Equal entries are not always repeated. Entries after “also recorded” stand apart in the source; their conditions may differ. Where two headings read alike, the source gives them in different places.", "data": [{"smiles": "NNc1ccc(C(=O)NC(CCC(=O)O)C(=O)NC(CCC(=O)O)C(=O)NCc2ccc(C(=O)NC(Cc3ccc4ccccc4c3)C(=O)NCCCCC(NC(=O)NC(CCC(=O)O)C(=O)O)C(=O)O)cc2)cn1", "note": "(stereo not drawn) [HYNIC-PSMA-XL-2, Glu-Urea-Lys-2Nal-AMB-Glu-Glu-HYNIC]", "values": [{"measurement": "Kd", "setting": "[1]; [6]", "result": "< 6.43", "unit": "pM"}]}, {"smiles": "O=C(O)CCc1ccc(O)c(CN(CCN(CC(=O)O)Cc2cc(CCC(=O)NCCCCCC(=O)NCCCC[C@H](NC(=O)N[C@@H](CCC(=O)O)C(=O)O)C(=O)O)ccc2O)CC(=O)O)c1", "note": "[PSMA11, reference compound]", "values": [{"measurement": "Kd", "setting": "[1]; reference PSMA inhibitors, same method", "result": 1260, "unit": "pM"}]}, {"smiles": "O=C(O)CCC(NC(=O)NC(CCCCNC(=O)C(Cc1ccc2ccccc2c1)NC(=O)c1ccc(CNC(=O)C(CCC(=O)O)NC(=O)C(CCC(=O)O)NC(=O)c2ccc(N[N]=[99Tc]345([Cl])[O]C(=O)C[N]3CC[N]4CC(=O)[O]5)nc2)cc1)C(=O)O)C(=O)O", "note": "(stereo not drawn) [^99mTc-HYNIC/EDDA-PSMA-XL-2]", "values": [{"measurement": "specific binding to PSMA-positive LNCaP cells", "setting": "[2]", "result": "highly specifically bind"}]}, {"smiles": "O=C(O)CCC(NC(=O)NC(CCCCNC(=O)C(Cc1ccc2ccccc2c1)NC(=O)c1ccc(CNC(=O)C(CCC(=O)O)NC(=O)c2ccc(N[N]=[99Tc]3([Cl])[O]C(=O)CNCCNCC(=O)[O]3)nc2)cc1)C(=O)O)C(=O)O", "note": "(stereo not drawn) [^99mTc-HYNIC/EDDA-PSMA-XL-3]", "values": [{"measurement": "patients found to have local recurrence in the prostatic fossa", "setting": "[3]", "result": 1}, {"measurement": "positive rate of imaging", "setting": "[3]", "result": 80, "unit": "%"}, {"measurement": "Number of tumors", "setting": "[3]; listed as 99mTc-PSMA-XL", "result": "3 and 1 and 2 and 0 and 4"}, {"measurement": "With or without local recurrence", "setting": "[3]; listed as 99mTc-PSMA-XL", "result": "yes and no (4×)"}, {"measurement": "percentage of cell uptake, Experimental group", "setting": "[2]; LNCaP cells, 0.5 μCi per well, 1 h", "result": "14.01 ± 1.11", "unit": "%"}, {"measurement": "percentage of cell uptake, Blocking group", "setting": "[2]; LNCaP cells, 1 h, excess 2-PMPA (1000-fold molar equivalent) added half an hour in advance", "result": "2.66 ± 0.51", "unit": "%"}]}, {"smiles": "NNc1ccc(C(=O)NC(CCC(=O)O)C(=O)NCc2ccc(C(=O)NC(Cc3ccc4ccccc4c3)C(=O)NCCCCC(NC(=O)NC(CCC(=O)O)C(=O)O)C(=O)O)cc2)cn1", "note": "(stereo not drawn) [HYNIC-PSMA-XL-3, Glu-Urea-Lys-2Nal-AMB-Glu-HYNIC]", "values": [{"measurement": "Kd", "setting": "[1]; [6]", "result": "< 4.86", "unit": "pM"}]}, {"smiles": "O=C(O)CCC(NC(=O)NC(CCCCNC(=O)C(Cc1ccc2ccccc2c1)NC(=O)c1ccc(CNC(=O)C(CCC(=O)O)NC(=O)c2ccc(N[N]=[99Tc]345([Cl])[O]C(=O)C[N]3CC[N]4CC(=O)[O]5)nc2)cc1)C(=O)O)C(=O)O", "note": "(stereo not drawn) [^99mTc-HYNIC/EDDA-PSMA-XL-3]", "values": [{"measurement": "consistency of SPECT/CT tumor uptake with immunohistochemical PSMA expression of surgical specimens", "setting": "[4]; patients who underwent surgery, listed as 99mTc-HYNIC-PSMA-XL-3", "result": "highly consistent"}, {"measurement": "distribution of radioactivity in the bladder", "setting": "[4]; patients, about 740 MBq, SPECT/CT 2 hours after injection, compared with tumor uptake", "result": "low"}, {"measurement": "tumor targeting", "setting": "[4]; patients, about 740 MBq, SPECT/CT 2 hours after injection, metastases such as lymph nodes/bone", "result": "high"}, {"measurement": "distribution of radioactivity in the bladder", "setting": "[5]; listed as 99mTc-HYNIC-PSMA-XL3", "result": "very low distribution of radioactivity"}, {"measurement": "distribution of radioactivity in the bladder", "setting": "[5]; listed as 99mTc-HYNIC-PSMA-XL-3", "result": "less distribution of radioactivity in the bladder"}, {"measurement": "specific binding to PSMA-positive LNCaP cells", "setting": "[2]", "result": "highly specifically bind"}]}, {"smiles": "O=C([O-])CN(CCN(CC(=O)[O-])Cc1cc(CCC(=O)NCCCCCC(=O)NCCCC[C@H](NC(=O)N[C@@H](CCC(=O)O)C(=O)O)C(=O)O)ccc1[O-])Cc1cc(CCC(=O)O)ccc1[O-].[68Ga+3].[OH3+]", "note": "[^68Ga-PSMA11, reference compound]", "values": [{"measurement": "patients found to have local recurrence in the prostatic fossa", "setting": "[3]", "result": 1}, {"measurement": "positive rate of imaging", "setting": "[3]", "result": 80, "unit": "%"}, {"measurement": "Number of tumors", "setting": "[3]", "result": "1 (2×) and 4 and 0 and 2"}, {"measurement": "With or without local recurrence", "setting": "[3]", "result": "no (4×) and yes"}, {"measurement": "distribution of radioactivity in the bladder", "setting": "[5]", "result": "higher radiophysiological distribution; also recorded: high physiological distributions in the bladder"}]}]}
